Experimental data taken from ChEMBL document CHEMBL1150053, “Scalarane-type bishomosester terpenes from the sponge Phyllospongia foliascens” (J Nat Prod, 1992).
≈ marks a conversion by molar mass, not a printed value.

Tested on: KB
Experiment: Cytotoxicity against human KB cells
Assay type: functional, cell-based

Row | SMILES | IC50 [µg/mL]
1 | CCC(O)CC(=O)O[C@@H]1C[C@@H]2[C@@]3(C)CCC[C@](C)(CC)[C@@H]3CC[C@@]2(C)[C@@H]2C[C@@H](O)C3=C(C(=O)O[C@@H]3C)[C@@]12C (some centres not stated) [PHYLLACTONE A] | 20 (≈ 37.7 µM)
2 | CCC(O)CC(=O)O[C@@H]1C[C@@H]2[C@@]3(C)CCC[C@](C)(CC)[C@@H]3CC[C@@]2(C)[C@@H]2C[C@@H](O)C3=C(C(=O)O[C@H]3C)[C@@]12C (some centres not stated) [PHYLLACTONE B] | 20 (≈ 37.7 µM)
